According to US11399542B2, “Pesticidally active heterocyclic derivatives with sulfur containing substituents” (SYNGENTA PARTICIPATIONS AG, priority 2017, dated 2022):

What was measured:
Format in all cases: in vivo
[1] = system: Euschistus heros (Neotropical Brown Stink Bug); assay: Example B9: Activity against Euschistus heros, sprayed soybean leaf; conditions: 120 h, application rate 200 ppm, N2 nymphs on soybean leaf, 5 days after infestation, read-out: effect in at least one of the two categories (mortality or growth inhibition)
Protocol: Soybean leaf on agar in 24-well microtiter plates were sprayed with aqueous test solutions prepared from 10′000 ppm DMSO stock solutions. After drying the leaf were infested with N2 nymphs. The samples were assessed for mortality and growth inhibition in comparison to untreated samples 5 days after infestation.

[2] = system: Myzus persicae (Green Peach Aphid); assay: Example B6: Activity against Myzus persicae, systemic via roots of pea seedlings; conditions: 144 h, test rate 24 ppm, pea seedling roots in test solution, 6 days
Protocol: Roots of pea seedlings infested with an aphid population of mixed ages were placed directly in the aqueous test solutions prepared from 10′000 DMSO stock solutions. The samples were assessed for mortality 6 days after placing seedlings in test solutions.

[3] = system: Myzus persicae (Green Peach Aphid); assay: Example B5: Activity against Myzus persicae, sprayed sunflower leaf discs; conditions: foliar, 144 h, application rate 200 ppm, mixed-age aphids on sunflower leaf discs, 6 days after infestation
Protocol: Sunflower leaf discs were placed on agar in a 24-well microtiter plate and sprayed with aqueous test solutions prepared from 10′000 ppm DMSO stock solutions. After drying, the leaf discs were infested with an aphid population of mixed ages. The samples were assessed for mortality 6 days after infestation.

[4] = system: Spodoptera littoralis (Egyptian Cotton Leaf Worm); assay: Example B1: Activity against Spodoptera littoralis, sprayed cotton leaf discs; conditions: foliar, 72 h, application rate 200 ppm, L1 larvae on cotton leaf discs, 3 days after infestation, read-out: control (at least one of mortality, anti-feedant effect, growth inhibition)
Protocol: Cotton leaf discs were placed onto agar in 24-well microtiter plates and sprayed with aqueous test solutions prepared from 10′000 ppm DMSO stock solutions. After drying the leaf discs were infested with five L1 larvae. The samples were assessed for mortality, anti-feeding effect, and growth inhibition in comparison to untreated samples 3 days after infestation. Control of Spodoptera littoralis by a test sample is given when at least one of the categories mortality, anti-feedant effect, and growth inhibition is higher than the untreated sample.

[5] = system: Diabrotica balteata (Corn Root Worm); assay: Example B4: Activity against Diabrotica balteata, sprayed maize sprouts; conditions: 96 h, application rate 200 ppm, L2 larvae on maize sprouts, 4 days after infestation, read-out: effect in at least one of the two categories (mortality or growth inhibition)
Protocol: Maize sprouts placed onto an agar layer in 24-well microtiter plates were treated with aqueous test solutions prepared from 10′000 ppm DMSO stock solutions by spraying. After drying, the plates were infested with L2 larvae (6 to 10 per well). The samples were assessed for mortality and growth inhibition in comparison to untreated samples 4 days after infestation.

[6] = system: Plutella xylostella (Diamond Back Moth); assay: Example B12: Activity against Plutella xylostella, artificial diet, eggs; conditions: 192 h, application rate 200 ppm, eggs on artificial diet, 8 days after infestation, read-out: effect in at least one of the two categories (mortality or growth inhibition)
Protocol: 24-well microtiter plates with artificial diet were treated with aqueous test solutions prepared from 10′000 ppm DMSO stock solutions by pipetting. After drying, Plutella eggs were pipetted through a plastic stencil onto a gel blotting paper and the plate was closed with it. The samples were assessed for mortality and growth inhibition in comparison to untreated samples 8 days after infestation.

SMILES: CCSc1cc2c(cc1-c1nc3cc(C(F)(F)F)ncc3n1C)n(C)c(=O)n2C [Compound P10, 5-ethylsulfanyl-1,3-dimethyl-6-[3-methyl-6-(trifluoromethyl)imidazo[4,5-c]pyridin-2-yl]benzimidazol-2-one]
- percent effect (mortality or growth inhibition) at 200 ppm [1]: ≥ 80%

SMILES: CCS(=O)(=O)c1cc2c(cc1-c1nc3cc(C(F)(F)F)nnc3n1C)n(C)c(=O)n2C [Compound P11, 5-ethylsulfonyl-1,3-dimethyl-6-[7-methyl-3-(trifluoromethyl)imidazo[4,5-c]pyridazin-6-yl]benzimidazol-2-one]
- mortality at 24 ppm [2]: ≥ 80%
- mortality at 200 ppm [3]: ≥ 80%
- percent effect (mortality or growth inhibition) at 200 ppm [1]: ≥ 80%

SMILES: CCS(=O)(=O)c1cc2c(cc1-c1nc3cc(C(F)(F)F)cnc3n1C)n(S(=O)(=O)C1CC1)c(=O)n2C [Compound P13, 1-cyclopropylsulfonyl-5-ethylsulfonyl-3-methyl-6-[3-methyl-6-(trifluoromethyl)imidazo[4,5-b]pyridin-2-yl]benzimidazol-2-one]
- mortality at 24 ppm [2]: ≥ 80%
- mortality at 200 ppm [3]: ≥ 80%

SMILES: CCS(=O)(=O)c1cc2c(cc1-c1nc3cc(C(F)(F)F)cnc3n1C)n(CSC)c(=O)n2C [Compound P17, 6-ethylsulfonyl-1-methyl-3-(methylsulfanylmethyl)-5-[3-methyl-6-(trifluoromethyl)imidazo[4,5-b]pyridine-2-yl]benzimidazol-2-one]
- mortality at 24 ppm [2]: ≥ 80%
- mortality at 200 ppm [3]: ≥ 80%
- percent effect (mortality or growth inhibition) at 200 ppm [1]: ≥ 80%

SMILES: CCS(=O)(=O)c1cc2c(cc1-c1nc3cc(C(F)(F)F)cnc3n1C)n(CC(F)(F)F)c(=O)n2C [Compound P19, 6-ethylsulfonyl-1-methyl-5-[3-methyl-6-(trifluoromethyl)imidazo[4,5-b]pyridine-2-yl]-3-(2,2,2-trifluoroethyl) benzimidazol-2-one]
- mortality at 24 ppm [2]: ≥ 80%
- mortality at 200 ppm [3]: ≥ 80%
- percent control (mortality, anti-feedant effect or growth inhibition) at 200 ppm [4]: ≥ 80%
- percent effect (mortality or growth inhibition) at 200 ppm [1]: ≥ 80%
- percent effect (mortality or growth inhibition) at 200 ppm [5]: ≥ 80%

SMILES: CCS(=O)(=O)c1cc2c(cc1-c1nc3cc(C(F)(F)F)cnc3n1C)n(C(=O)C1CC1)c(=O)n2C [Compound P20, 1-(cyclopropanecarbonyl)-5-ethylsulfonyl-3-methyl-6-[3-methyl-6-(trifluoromethyl)imidazo[4,5-b]pyridine-2-yl]benzimidazol-2-one]
- mortality at 200 ppm [3]: ≥ 80%

SMILES: CCOC(=O)n1c(=O)n(C)c2cc(S(=O)(=O)CC)c(-c3nc4cc(C(F)(F)F)cnc4n3C)cc21 [Compound P23, ethyl 5-ethylsulfonyl-3-methyl-6-[3-methyl-6-(trifluoromethyl)imidazo[4,5-b]pyridine-2-yl]-2-oxo-benzimidazole-1-carboxylate]
- mortality at 24 ppm [2]: ≥ 80%
- mortality at 200 ppm [3]: ≥ 80%
- percent effect (mortality or growth inhibition) at 200 ppm [5]: ≥ 80%

SMILES: CCSc1cc2c(nc1-c1nc3cc(C(F)(F)F)cnc3n1C)n(C)c(=O)n2C [Compound P24, 6-ethylsulfanyl-1,3-dimethyl-5-[3-methyl-6-(trifluoromethyl)imidazo[4,5-b]pyridine-2-yl]imidazo[4,5-b]pyridine-2-one]
- percent effect (mortality or growth inhibition) at 200 ppm [5]: ≥ 80%

SMILES: CCS(=O)(=O)c1cc2c(cc1-c1nc3cc(S(=O)(=O)C(F)(F)F)ccc3o1)n(C)c(=O)n2C [Compound P25, 5-ethylsulfonyl-1,3-dimethyl-6-[5-(trifluoromethylsulfonyl)-1,3-benzoxazol-2-yl]benzimidazol-2-one]
- percent effect (mortality or growth inhibition) at 200 ppm [6]: ≥ 80%
- percent control (mortality, anti-feedant effect or growth inhibition) at 200 ppm [4]: ≥ 80%
- percent effect (mortality or growth inhibition) at 200 ppm [1]: ≥ 80%
- percent effect (mortality or growth inhibition) at 200 ppm [5]: ≥ 80%

SMILES: CCS(=O)(=O)c1cc2c(nc1-c1nc3cc(S(=O)(=O)C(F)(F)F)ccc3o1)n(C)c(=O)n2C [Compound P26, 6-ethylsulfonyl-1,3-dimethyl-5-[5-(trifluoromethylsulfonyl)-1,3-benzoxazol-2-yl]imidazo[4,5-b]pyridine-2-one]
- percent effect (mortality or growth inhibition) at 200 ppm [6]: ≥ 80%
- percent control (mortality, anti-feedant effect or growth inhibition) at 200 ppm [4]: ≥ 80%
- percent effect (mortality or growth inhibition) at 200 ppm [5]: ≥ 80%

SMILES: CCS(=O)(=O)c1cc2c(cc1-c1nc3cc(SC(F)(F)F)ccc3o1)n(C)c(=O)n2C [Compound P29, 5-ethylsulfonyl-1,3-dimethyl-6-[5-(trifluoromethylsulfanyl)-1,3-benzoxazol-2-yl]benzimidazol-2-one]
- percent effect (mortality or growth inhibition) at 200 ppm [6]: ≥ 80%
- percent control (mortality, anti-feedant effect or growth inhibition) at 200 ppm [4]: ≥ 80%
- percent effect (mortality or growth inhibition) at 200 ppm [1]: ≥ 80%
- percent effect (mortality or growth inhibition) at 200 ppm [5]: ≥ 80%

SMILES: CCS(=O)(=O)c1cc2c(nc1-c1nc3cc(SC(F)(F)F)ccc3o1)n(C)c(=O)n2C [Compound P35, 6-ethylsulfonyl-1,3-dimethyl-5-[5-(trifluoromethylsulfanyl)-1,3-benzoxazol-2-yl]imidazo[4,5-b]pyridin-2-one]
- percent effect (mortality or growth inhibition) at 200 ppm [6]: ≥ 80%
- percent control (mortality, anti-feedant effect or growth inhibition) at 200 ppm [4]: ≥ 80%
- percent effect (mortality or growth inhibition) at 200 ppm [5]: ≥ 80%

SMILES: CCS(=O)(=O)c1cc2c(cc1-c1nc3cc(S(=O)(=O)C(F)(F)F)ccc3n1C)n(C)c(=O)n2C [Compound P37, 5-ethylsulfonyl-1,3-dimethyl-6-[1-methyl-5-(trifluoromethyl-sulfonyl)benzimidazol-2-yl]benzimidazol-2-one]
- mortality at 200 ppm [3]: ≥ 80%
- percent effect (mortality or growth inhibition) at 200 ppm [6]: ≥ 80%
- percent effect (mortality or growth inhibition) at 200 ppm [1]: ≥ 80%

SMILES: CCS(=O)(=O)c1cc2c(cc1-c1nc3cc(C(F)(F)F)ccc3o1)n(C)c(=O)n2C [Compound P40, 5-ethylsulfonyl-1,3-dimethyl-6-[5-(trifluoromethyl)-1,3-benzoxazol-2-yl]benzimidazol-2-one]
- percent effect (mortality or growth inhibition) at 200 ppm [6]: ≥ 80%

SMILES: CCSc1cc2c(cc1-c1nc3cc(SC(F)(F)F)ccc3n1C)n(C)c(=O)n2C [Compound P42, 5-ethylsulfanyl-1,3-dimethyl-6-[1-methyl-5-(trifluoromethyl-sulfanyl)benzimidazol-2-yl]benzimidazol-2-one]
- percent effect (mortality or growth inhibition) at 200 ppm [6]: ≥ 80%
- percent effect (mortality or growth inhibition) at 200 ppm [1]: ≥ 80%

SMILES: CCS(=O)(=O)c1cc2c(nc1-c1nc3cc([S+]([O-])C(F)(F)F)ccc3n1C)n(C)c(=O)n2C (centres unmarked) [Compound P43, 6-ethylsulfonyl-1,3-dimethyl-5-[1-methyl-5-(trifluoromethyl-sulfinyl)benzimidazol-2-yl]imidazo[4,5-b]pyridin-2-one]
- mortality at 24 ppm [2]: ≥ 80%
- mortality at 200 ppm [3]: ≥ 80%
- percent effect (mortality or growth inhibition) at 200 ppm [6]: ≥ 80%
- percent effect (mortality or growth inhibition) at 200 ppm [1]: ≥ 80%

SMILES: CCS(=O)(=O)c1cc2c(cc1-c1nc3cc([S+]([O-])C(F)(F)F)ccc3n1C)n(C)c(=O)n2C (centres unmarked) [Compound P44, 5-ethylsulfonyl-1,3-dimethyl-6-[1-methyl-5-(trifluoromethyl-sulfinyl)benzimidazol-2-yl]benzimidazol-2-one]
- mortality at 24 ppm [2]: ≥ 80%
- mortality at 200 ppm [3]: ≥ 80%
- percent effect (mortality or growth inhibition) at 200 ppm [6]: ≥ 80%
- percent effect (mortality or growth inhibition) at 200 ppm [1]: ≥ 80%
